Data on one compound can be found in article PMC3217161 (2011).

Each structure is given as a SMILES string.

The target in the experiment is D-xylose isomerase (Streptomyces pseudogriseolus, UniProt P24300). Kind of experiment: competitive inhibition of D-xylose isomerization. It counts as biochemical.

The term Ki denotes the equilibrium dissociation constant of an inhibitor or competing ligand from its target. Read a low Ki as higher affinity.

D-xylose isomerase, sequence (P24300 2-388): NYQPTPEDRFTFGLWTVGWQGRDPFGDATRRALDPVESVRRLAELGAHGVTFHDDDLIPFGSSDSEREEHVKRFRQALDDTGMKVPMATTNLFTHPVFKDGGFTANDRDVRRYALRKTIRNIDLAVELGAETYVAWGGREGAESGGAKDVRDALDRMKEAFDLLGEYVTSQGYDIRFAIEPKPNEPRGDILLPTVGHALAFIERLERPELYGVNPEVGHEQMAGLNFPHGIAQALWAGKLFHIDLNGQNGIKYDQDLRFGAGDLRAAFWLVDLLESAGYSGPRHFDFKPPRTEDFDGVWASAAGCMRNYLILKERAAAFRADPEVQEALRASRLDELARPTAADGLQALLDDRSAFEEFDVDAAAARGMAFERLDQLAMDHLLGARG

In turn, `O=C[C@H](O)CO` [DGA, D-glyceraldehyde] came in with a Ki of 3 mM.
